According to patent US6586596B2, “Acetylcholine enhancers” (priority 1998, dated 2003):

What was measured:
Cynomologous monkeys = assay: Hepatotoxic analysis, four-week oral study; type: in vivo; conditions: oral; for Clinical signs vomiting: four weeks (10, 5, 10 mg/kg/day regimens); on Clinical signs vomiting: key: − no remarkable change; ↑ increase; ↓ decrease; + slight; ++ severe (diarrhea)
Procedure: During the testing period, these animals were dosed with three different regimens: first, animals were dosed with 10 mg/kg/day for 7 days, followed by 32 days-washout period, second, animals were dosed with 5 mg/kg/day for 14 days, and thereafter the animals were dosed with 10 mg/kg/day for 7 days. The following parameters were examined: body weight, clinical signs, food consumption, blood biochemistry (GOT, GPT, ALP, LDH, γ-GTP, ChE, Bil, T.Pro, Alb, A/G ratio, T.Cho, NEFA, TG).

BF-lesioned rats = assay: Passive avoidance, basal forebrain (BF) lesion-induced memory impairment
Procedure: Using male Wistar rats, passive-avoidance studies were conducted using a step through-type, 2 compartment (light and dark) box. In the acquisition trial, at the time when the animal entered the dark area, a guillotine door was closed and an electric shock (0.5˜0.8 mA for 3 seconds) was delivered to the animal. After 24 hours, the retention trial was conducted: the rat was put in the light area and the time until the animal entered the dark area (latency) was measured. Cutoff latency was set at 600 seconds. Test substances were orally administered 30 minutes before the acquisition trial.
After 2 weeks, the acquisition trial was conducted.

COc1c2c(nc3ccccc13)CN(CCC1CCN(Cc3ccccc3)CC1)C2=O [Cm.A, 2-[2-(1-benzylpiperizin-4-yl)ethyl]-2,3-dihydro-9-methoxy-1H-pyrrolo[3,4-b]quinolin-1-one hemifumarate]
Blood biochemistry (Cynomologous monkeys; F, four weeks): ↑: TG | Clinical signs softstool (Cynomologous monkeys; F, four weeks): ± | Food consumption (Cynomologous monkeys; F, four weeks): − | Clinical signs vomiting (Cynomologous monkeys; F): − | Blood biochemistry (Cynomologous monkeys; M, four weeks): ↑: TG | Clinical signs softstool (Cynomologous monkeys; M, four weeks): − | Food consumption (Cynomologous monkeys; M, four weeks): − | Clinical signs vomiting (Cynomologous monkeys; M): − | blood biochemical tests (Cynomologous monkeys; four weeks): small increase in TG | clinical signs (Cynomologous monkeys; four weeks): minimal adverse clinical signs | food consumption and body weight (Cynomologous monkeys; four weeks): no remarkable change in food consumption and body weight | memory deficit induced by BF-lesion, repeated doses (BF-lesioned rats; 0.03~0.3 mg/kg/day for 1 week): improvement in recovery as potently as or more potently than THA and E2020 | memory deficit induced by BF-lesion, single dose (BF-lesioned rats; single dose 0.03~1.0 mg/kg): partially, but significantly, recovered the memory deficit
